Measured values from PMC7895462 (Neurochemical research, 2017).
Where two headings read alike, the source gives them in different places.

Columns and labels:
[1] = system: psychomotor seizures induced by 6 Hz 44 mA corneal stimulus; assay: 6 Hz 44 mA mouse test; format: in vivo; settings: for Mouse I.P identification 44 mA / Mouse P.O. identification 44 mA: 0.5 and 2 h, default doses 30, 100, 300 mg/kg; for ED50: Mus musculus
[2] = system: MES-induced seizures; assay: Maximal electroshock; format: in vivo
[3] = system: 60 Hz corneal kindled seizures; settings: for average seizure score (SEM): corneal kindled mouse
[4] = system: 60 Hz corneal kindled seizures; assay: animal or person; settings: Mus musculus, ip
[5] = in vivo; for Rat I.P. identification TOX: ip; for Rat P.O. identification TOX: po
[6] = system: spontaneous bursting of a mEC-HC slice; assay: In vitro post-KA rat spontaneous bursting mEC-HC slice; format: cell-based
[7] = system: MES-induced seizures; assay: Maximal electroshock; format: in vivo; settings: for Mouse I.P identification MES / Mouse P.O. identification MES: 0.5 and 2 h, default doses 30, 100, 300 mg/kg; for ED50: Mus musculus
[8] = in vivo; settings: rat
[9] = in vivo; settings: mouse
[10] = Minimal motor impairment; settings: for TD50: rat, in vivo
[11] = for Mouse I.P identification TOX / Mouse P.O. identification TOX: 0.5 and 2 h, default doses 30, 100, 300 mg/kg
[12] = Open field activity monitor of rats; format: in vivo; settings: rat; i.p.; 45 and 60 mg/kg; 10 min; vs vehicle
[13] = read-out: Mouse CKM (I.P.) Quant (ED50), i.p.
[14] = ip, read-out: Mouse I.P. quantification 44 mA (ED50)
[15] = po, read-out: Mouse P.O. quantification 44 mA (ED50)
[16] = ip, read-out: Mouse I.P. quantification MES (ED50)
[17] = po, read-out: Mouse P.O. quantification MES (ED50)
[18] = ip, Rat I.P. quantification TOX (TD50)
[19] = read-out: Mouse CKM (I.P.) Quant (ED50)
[20] = po, Rat P.O. quantification TOX (TD50)
[21] = 30 mg/kg (n = 2 mice) and 40 mg/kg (n = 1 mouse)

Structure (SMILES)	Mouse I.P identification 44 mA ([1]; i.p., 6 Hz 44 mA)	Mouse P.O. identification 44 mA ([1]; 6 Hz 44 mA)	Rat I.P. identification MES ([2]; i.p.)	Rat P.O. identification MES [2]	Mouse CKM (I.P.) ID ([3]; i.p.)	ED50 [4, 13]	Rat I.P. identification TOX [5]	Rat P.O. identification TOX [5]	Mouse I.P identification MES ([7]; i.p.)	Mouse P.O. identification MES [7]	ED50 [1, 14]	ED50 [1, 15]	ED50 [7, 16]	ED50 [7, 17]	TD50 ([9]; po)	Rat I.P. identification TOX ([10]; i.p.)	Rat P.O. identification TOX [10]	Mouse I.P identification TOX ([11]; i.p.)	Mouse P.O. identification TOX [11]	TD50 ([9]; ip)	other results
CC(=O)Nc1ccc(O)cc1 [Acetaminophen, acetaminophen]	−	−	−	−	+	> 450 mg/kg	−	−	−	−											protected in the corneal kindled mouse ([3]; 20 mg/kg, i.p., 30 min after administration): 1/8; protected in the corneal kindled mouse ([3]; 80 mg/kg, i.p., 30 min after administration): 0/8; protected in the corneal kindled mouse ([3]; 120 mg/kg, i.p., 30 min after administration): 1/8; protected in the corneal kindled mouse ([3]; 150 mg/kg, i.p., 30 min after administration): 2/8; protected in the corneal kindled mouse ([3]; 175 mg/kg, i.p., 30 min after administration): 0/12; death of corneal kindled mice ([3]; 450 mg/kg, 24-hours later): 1/4; protected in the corneal kindled mouse ([3]; 450 mg/kg, i.p., 30 min after administration): 3/4; amplitude of spontaneous bursts ([6]; 3000 μM): small, but significant increase; acute effects on spontaneous bursting in vitro ([6]; concentrations up to 1000 μM): did not identify any acute effects
NC(=O)N1c2ccccc2C=Cc2ccccc21 [Carbamazepine, carbamazepine]	+	+	+	+	+	6.42 mg/kg	+	+	+	+	31.4 mg/kg	63.7 mg/kg	8.38 mg/kg	11.3 mg/kg	95.4 mg/kg						protective index (PI), corneal kindled mouse ([3]; male, CF-1, mouse, in vivo, ip): 7.1; TD50 ([8]; ip): 22.9 mg/kg; TD50 ([8]; po): > 500 mg/kg
CN1C(=O)CC(=O)N(c2ccccc2)c2cc(Cl)ccc21 [Clobazam, clobazam]	+	+	−	−	+				+	+	4.5 mg/kg	6.99 mg/kg	16.5 mg/kg	29.9 mg/kg	197 mg/kg	−	−	+	−	26.1 mg/kg	TD50 [10, 18]: 15.7 mg/kg; protective index (PI), corneal kindled mouse ([3]; calculated based on the i.p. TD50): 10.3; ED50 [4, 19]: 2.53 mg/kg
CC[C@@H](C(N)=O)N1CCCC1=O [Levetiracetam, levetiracetam]	+	+	−	−	+		−	−	−	−	> 1500 mg/kg	> 500 mg/kg			> 500 mg/kg					> 1500 mg/kg	
OC[C@H]1O[C@@H](n2cnc3c(NC4CCCC4)ncnc32)[C@H](O)[C@@H]1O [N6-Cyclopentyladenosine, N^6-cyclopentyladenosine]	+	+	+	+	−				+	+	0.19 mg/kg	1.36 mg/kg	1.01 mg/kg	4.43 mg/kg	6.94 mg/kg	+	+	+	+	0.94 mg/kg	TD50 [10, 20]: > 10 mg/kg; average seizure score (SEM) ([3]; 0.1 mg/kg): 4.75 ± 0.25; average seizure score (SEM) ([3]; 2 mg/kg): 4.88 ± 0.13
CCOC(=O)Nc1ccc(NCc2ccc(F)cc2)cc1N [Retigabine, retigabine]	+	+	+	+	+				+	+	32.5 mg/kg	75.1 mg/kg	25.7 mg/kg	57 mg/kg	> 500 mg/kg	+	+		+	129 mg/kg	TD50 [10, 18]: 23.4 mg/kg; TD50 [10, 20]: 64.4 mg/kg; ED50 [4, 19]: 13.7 mg/kg
Cc1ccsc1C(=CCCN1CCC[C@@H](C(=O)O)C1)c1sccc1C [Tiagabine, tiagabine]	+	+	−	−			+	−	−	−	1.03 mg/kg	1.87 mg/kg			33.2 mg/kg					5.84 mg/kg	
CCCC(CCC)C(=O)O [Valproic acid, valproic acid]	+	−	−	−	+	94 mg/kg	−	−		−	239 mg/kg	> 300 mg/kg	> 60 mg/kg	> 300 mg/kg	< 300 mg/kg					> 300 mg/kg	Mouse CKM (I.P.) Quant (ED50) ([3]; i.p.): 94.02 mg/kg; protective index (PI), corneal kindled mouse ([3]; male, CF-1, mouse, in vivo, ip): > 94
Clc1cccc(N2CCNCC2)c1 [m-CPP, meta-chlorophenylpiperazine]	−	−	+	+	−				−	−						−	−	+	−		Mouse I.P. quantification 44 mA (ED50) ([1]; i.p., 6 Hz 44 mA, at time of peak effect): >55 mg/kg; Rat I.P. quantification TOX (TD50) ([10]; i.p.): <10 mg/kg; MMI in corneal kindled mice [11, 21]: significant MMI in all animals tested; mice with significant MMI on the rotarod assay ([11]; corneal kindled mice, 20 mg/kg, i.p., 15 min): 3/8; Mouse I.P. quantification TOX (TD50) ([11]; i.p., rotorod): 52.6 mg/kg; Rat I.P. quantification MES (ED50) ([2]; i.p.): 37.1 mg/kg; protected in the corneal kindled mouse ([3]; 20 mg/kg, i.p., 15 min prior to testing): 0/8; protection in the corneal kindled mouse [3, 21]: lack of protection; adverse side effects in corneal kindled mice ([3]; at the highest doses tested): severe adverse side effects, including splaying, tremors, and mortality following seizure; total distance travelled in the open field [12]: significant, dose-dependent reduction; Mouse I.P. quantification MES (ED50) ([7]; i.p., at time of peak effect): >60 mg/kg; protective index (PI), i.p., MES test ([7]; mouse, i.p.): less than 1.0; mice protected in the MES test ([7]; screening, at 10 and 30 mg/kg): one out of four
